Laboratory results as given in ChEMBL document CHEMBL1269000, “Synthesis and biological evaluation of [D-lysine]8cyclosporin A analogs as potential anti-HCV agents” (Bioorg Med Chem Lett, 2010).

Columns and labels:
[1] = test system: Hepatitis C virus; assay: Antiviral activity against HCV after 72 hrs by stable luciferase reporter gene assay; type: functional, organism-based, Hepacivirus hominis
[2] = molecular target: Peptidyl-prolyl cis-trans isomerase B (Homo sapiens, UniProt P23284); assay: Binding affinity to cyclophilin B by ELISA
[3] = Cytotoxicity against human HuH7 cells assessed as release of lactate dehydrogenase; type: cell-based, Huh-7; conditions: for IC50: Homo sapiens, Huh-7; for IC90: human, HuH7 cells
[4] = molecular target: Peptidyl-prolyl cis-trans isomerase A (Homo sapiens, UniProt P62937); assay: Binding affinity to cyclophilin A by ELISA
[5] = test system: Jurkat; assay: Immunosuppressive activity against human Jurkat cells assessed as inhibition of phytohemagglutinin-M/phorbol myristate acetate-induced IL2 production; type: cell-based

Sequence of Peptidyl-prolyl cis-trans isomerase A (P62937 whole entry): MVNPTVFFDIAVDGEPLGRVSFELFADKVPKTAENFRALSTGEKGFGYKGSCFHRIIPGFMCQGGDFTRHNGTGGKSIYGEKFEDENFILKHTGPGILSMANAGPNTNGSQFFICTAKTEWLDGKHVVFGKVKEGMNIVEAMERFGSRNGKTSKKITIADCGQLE
Sequence of Peptidyl-prolyl cis-trans isomerase B (P23284 whole entry): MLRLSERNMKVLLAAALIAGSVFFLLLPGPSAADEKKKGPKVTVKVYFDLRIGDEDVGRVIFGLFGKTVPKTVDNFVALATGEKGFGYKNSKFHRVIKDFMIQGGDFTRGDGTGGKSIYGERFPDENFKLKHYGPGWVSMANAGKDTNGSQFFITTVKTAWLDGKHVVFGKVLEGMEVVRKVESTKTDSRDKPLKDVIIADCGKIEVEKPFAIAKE

| Compound | EC50 [1] [nM] | EC90 [1] [nM] | IC50 [2] [nM] | IC50 [3] [nM] | IC90 [3] [µM] | IC50 [4] [nM] | EC50 [5] [nM] |
| --- | --- | --- | --- | --- | --- | --- | --- |
| C/C=C/C[C@@H](C)[C@@H](O)[C@H]1C(=O)N[C@@H](CC)C(=O)N(C)CC(=O)N(C)[C@@H](CC(C)C)C(=O)N[C@@H](C(C)C)C(=O)N(C)[C@@H](CC(C)C)C(=O)N[C@@H](C)C(=O)N[C@H](CNC(=O)OC(C)(C)C)C(=O)N(C)[C@@H](CC(C)C)C(=O)N(C)[C@@H](CC(C)C)C(=O)N(C)[C@@H](C(C)C)C(=O)N1C | 200 | 480 | 66.8 | 1720 | > 10 | 83.5 | 50 |
| C/C=C/C[C@@H](C)[C@@H](O)[C@H]1C(=O)N[C@@H](CC)C(=O)N(C)CC(=O)N(C)[C@@H](CC(C)C)C(=O)N[C@@H](C(C)C)C(=O)N(C)[C@@H](CC(C)C)C(=O)N[C@@H](C)C(=O)N[C@H](CCNC(=O)C(C)(C)C)C(=O)N(C)[C@@H](CC(C)C)C(=O)N(C)[C@@H](CC(C)C)C(=O)N(C)[C@@H](C(C)C)C(=O)N1C | 140 | 360 | 26.1 | 2020 | > 10 | 31.2 | 22 |
| C/C=C/C[C@@H](C)[C@@H](O)[C@H]1C(=O)N[C@@H](CC)C(=O)N(C)CC(=O)N(C)[C@@H](CC(C)C)C(=O)N[C@@H](C(C)C)C(=O)N(C)[C@@H](CC(C)C)C(=O)N[C@@H](C)C(=O)N[C@H](CCCNC(=O)C(C)(C)C)C(=O)N(C)[C@@H](CC(C)C)C(=O)N(C)[C@@H](CC(C)C)C(=O)N(C)[C@@H](C(C)C)C(=O)N1C | 120 | 310 | 30.5 | 2070 | > 10 | 26.7 | 21 |
| C/C=C/C[C@@H](C)[C@@H](O)[C@H]1C(=O)N[C@@H](CC)C(=O)N(C)CC(=O)N(C)[C@@H](CC(C)C)C(=O)N[C@@H](C(C)C)C(=O)N(C)[C@@H](CC(C)C)C(=O)N[C@@H](C)C(=O)N[C@H](CCCCNC(=O)C(C)(C)C)C(=O)N(C)[C@@H](CC(C)C)C(=O)N(C)[C@@H](CC(C)C)C(=O)N(C)[C@@H](C(C)C)C(=O)N1C | 160 | 300 | 20.6 | 2560 | > 10 | 22.8 | 121 |
| C/C=C/C[C@@H](C)[C@@H](O)[C@H]1C(=O)N[C@@H](CC)C(=O)N(C)CC(=O)N(C)[C@@H](CC(C)C)C(=O)N[C@@H](C(C)C)C(=O)N(C)[C@@H](CC(C)C)C(=O)N[C@@H](C)C(=O)N[C@H](CC#N)C(=O)N(C)[C@@H](CC(C)C)C(=O)N(C)[C@@H](CC(C)C)C(=O)N(C)[C@@H](C(C)C)C(=O)N1C | 40 | 140 | 9.45 | 2820 | > 10 | 9.12 | 5.1 |
| C/C=C/C[C@@H](C)[C@@H](O)[C@H]1C(=O)N[C@@H](CC)C(=O)N(C)CC(=O)N(C)[C@@H](CC(C)C)C(=O)N[C@@H](C(C)C)C(=O)N(C)[C@@H](CC(C)C)C(=O)N[C@@H](C)C(=O)N[C@H](CCC#N)C(=O)N(C)[C@@H](CC(C)C)C(=O)N(C)[C@@H](CC(C)C)C(=O)N(C)[C@@H](C(C)C)C(=O)N1C | 100 | 270 | 24.2 | 2370 | > 10 | 23 | 12 |
| C/C=C/C[C@@H](C)[C@@H](O)[C@H]1C(=O)N[C@@H](CC)C(=O)N(C)CC(=O)N(C)[C@@H](CC(C)C)C(=O)N[C@@H](C(C)C)C(=O)N(C)[C@@H](CC(C)C)C(=O)N[C@@H](C)C(=O)N[C@H](CN)C(=O)N(C)[C@@H](CC(C)C)C(=O)N(C)[C@@H](CC(C)C)C(=O)N(C)[C@@H](C(C)C)C(=O)N1C | 300 | 820 | 79.7 | 4610 | > 10 | 103 | 13 |
| C/C=C/C[C@@H](C)[C@@H](O)[C@H]1C(=O)N[C@@H](CC)C(=O)N(C)CC(=O)N(C)[C@@H](CC(C)C)C(=O)N[C@@H](C(C)C)C(=O)N(C)[C@@H](CC(C)C)C(=O)N[C@@H](C)C(=O)N[C@H](CCN)C(=O)N(C)[C@@H](CC(C)C)C(=O)N(C)[C@@H](CC(C)C)C(=O)N(C)[C@@H](C(C)C)C(=O)N1C | 660 | 2350 | 151 | 5300 | > 10 | 218 | 90 |
| C/C=C/C[C@@H](C)[C@@H](O)[C@H]1C(=O)N[C@@H](CC)C(=O)N(C)CC(=O)N(C)[C@@H](CC(C)C)C(=O)N[C@@H](C(C)C)C(=O)N(C)[C@@H](CC(C)C)C(=O)N[C@@H](C)C(=O)N[C@H](CCCN)C(=O)N(C)[C@@H](CC(C)C)C(=O)N(C)[C@@H](CC(C)C)C(=O)N(C)[C@@H](C(C)C)C(=O)N1C | 1890 | 6740 | 1580 | > 10000 | > 10 | 662 | 111 |
| C/C=C/C[C@@H](C)[C@@H](O)[C@H]1C(=O)N[C@@H](CC)C(=O)N(C)CC(=O)N(C)[C@@H](CC(C)C)C(=O)N[C@@H](C(C)C)C(=O)N(C)[C@@H](CC(C)C)C(=O)N[C@@H](C)C(=O)N[C@H](CCCCN)C(=O)N(C)[C@@H](CC(C)C)C(=O)N(C)[C@@H](CC(C)C)C(=O)N(C)[C@@H](C(C)C)C(=O)N1C | 1000 | 2850 | 12.7 | > 10000 | > 10 | 11.1 | 94 |
| C/C=C/C[C@@H](C)[C@@H](O)[C@H]1C(=O)N[C@@H](CC)C(=O)N(C)CC(=O)N(C)[C@@H](CC(C)C)C(=O)N[C@@H](C(C)C)C(=O)N(C)[C@@H](CC(C)C)C(=O)N[C@@H](C)C(=O)N[C@H](CN(C)C)C(=O)N(C)[C@@H](CC(C)C)C(=O)N(C)[C@@H](CC(C)C)C(=O)N(C)[C@@H](C(C)C)C(=O)N1C | 190 | 670 | 25.2 | 2050 | > 10 | 22.9 | 20 |
| C/C=C/C[C@@H](C)[C@@H](O)[C@H]1C(=O)N[C@@H](CC)C(=O)N(C)CC(=O)N(C)[C@@H](CC(C)C)C(=O)N[C@@H](C(C)C)C(=O)N(C)[C@@H](CC(C)C)C(=O)N[C@@H](C)C(=O)N[C@H](CCN(C)C)C(=O)N(C)[C@@H](CC(C)C)C(=O)N(C)[C@@H](CC(C)C)C(=O)N(C)[C@@H](C(C)C)C(=O)N1C | 170 | 300 | 59.5 | 3280 | > 10 | 46 | 24 |
| C/C=C/C[C@@H](C)[C@@H](O)[C@H]1C(=O)N[C@@H](CC)C(=O)N(C)CC(=O)N(C)[C@@H](CC(C)C)C(=O)N[C@@H](C(C)C)C(=O)N(C)[C@@H](CC(C)C)C(=O)N[C@@H](C)C(=O)N[C@H](CCCN(C)C)C(=O)N(C)[C@@H](CC(C)C)C(=O)N(C)[C@@H](CC(C)C)C(=O)N(C)[C@@H](C(C)C)C(=O)N1C | 140 | 380 | 28.9 | 2150 | 8.73 | 35.2 | 39 |
| C/C=C/C[C@@H](C)[C@@H](O)[C@H]1C(=O)N[C@@H](CC)C(=O)N(C)CC(=O)N(C)[C@@H](CC(C)C)C(=O)N[C@@H](C(C)C)C(=O)N(C)[C@@H](CC(C)C)C(=O)N[C@@H](C)C(=O)N[C@H](CCCCN(C)C)C(=O)N(C)[C@@H](CC(C)C)C(=O)N(C)[C@@H](CC(C)C)C(=O)N(C)[C@@H](C(C)C)C(=O)N1C | 140 | 300 | 97.1 | 2810 | > 10 | 14 | 332 |
| C/C=C/C[C@@H](C)[C@@H](O)[C@H]1C(=O)N[C@@H](CC)C(=O)N(C)CC(=O)N(C)[C@@H](CC(C)C)C(=O)N[C@@H](C(C)C)C(=O)N(C)[C@@H](CC(C)C)C(=O)N[C@@H](C)C(=O)N[C@H](CN(CC)CC)C(=O)N(C)[C@@H](CC(C)C)C(=O)N(C)[C@@H](CC(C)C)C(=O)N(C)[C@@H](C(C)C)C(=O)N1C | 380 | 950 | 158 | 2680 | > 10 | 140 | 55 |
| C/C=C/C[C@@H](C)[C@@H](O)[C@H]1C(=O)N[C@@H](CC)C(=O)N(C)CC(=O)N(C)[C@@H](CC(C)C)C(=O)N[C@@H](C(C)C)C(=O)N(C)[C@@H](CC(C)C)C(=O)N[C@@H](C)C(=O)N[C@H](CCN(CC)CC)C(=O)N(C)[C@@H](CC(C)C)C(=O)N(C)[C@@H](CC(C)C)C(=O)N(C)[C@@H](C(C)C)C(=O)N1C | 170 | 350 | 55.9 | 1500 | 8.62 | 65.2 | 114 |
| C/C=C/C[C@@H](C)[C@@H](O)[C@H]1C(=O)N[C@@H](CC)C(=O)N(C)CC(=O)N(C)[C@@H](CC(C)C)C(=O)N[C@@H](C(C)C)C(=O)N(C)[C@@H](CC(C)C)C(=O)N[C@@H](C)C(=O)N[C@H](CCCN(CC)CC)C(=O)N(C)[C@@H](CC(C)C)C(=O)N(C)[C@@H](CC(C)C)C(=O)N(C)[C@@H](C(C)C)C(=O)N1C | 150 | 370 | 17.2 | 1820 | 8.91 | 21.4 | 134 |
| C/C=C/C[C@@H](C)[C@@H](O)[C@H]1C(=O)N[C@@H](CC)C(=O)N(C)CC(=O)N(C)[C@@H](CC(C)C)C(=O)N[C@@H](C(C)C)C(=O)N(C)[C@@H](CC(C)C)C(=O)N[C@@H](C)C(=O)N[C@H](C)C(=O)N(C)[C@@H](CC(C)C)C(=O)N(C)[C@@H](CC(C)C)C(=O)N(C)[C@@H](C(C)C)C(=O)N1C [CYCLOSPORINE] | 370 | 910 |  |  |  |  | 6.7 |
| C/C=C/C[C@@H](C)[C@@H](O)[C@H]1C(=O)N[C@@H](CC)C(=O)N(C)[C@H](SCCN(C)C)C(=O)N(C)[C@@H](CC(C)(C)O)C(=O)N[C@@H](C(C)C)C(=O)N(C)[C@@H](CC(C)C)C(=O)N[C@@H](C)C(=O)N[C@H](C)C(=O)N(C)[C@@H](CC(C)C)C(=O)N(C)[C@@H](CC(C)C)C(=O)N(C)[C@@H](C(C)C)C(=O)N1C [SCY 635] | 50 | 240 | 10.3 | > 10000 | > 10 |  | 4210 |
